Legend:
NADPH oxidase = NADPH oxidase activity (lucigenin-ECL) in BMDMs; type: cell-based, mouse; conditions: LPS or LPS/ATP stimulated (Fig. 3c, Supplemental Fig. 5b, 5e)
Description: Intracellular superoxide production was measured by the lucigenin (bis-N-methylacridinium nitrate)-ECL method[18],[19]. Briefly, cells lysates were allowed to equilibrate for 30 min at 37 °C in a reaction containing 50 mM phosphate buffer (pH 7.0), 1 mM EGTA, 150 mM sucrose, and a protease inhibitor mixture prior to the addition of Krebs-HEPES buffer containing lucigenin (5 μM) as the electron acceptor and NADPH (100 μM) as the electron donor. The values are expressed as relative light units per 1 × 10^5 cells.
(§1) Figure 3 TIPTP robustly suppresses LPS/ATP-mediated Rubicon-p22phox interaction and ROS-mediated inflammation. (a) Structure of the TIPTP. (b) MTT assay for cell viability. BMDMs were incubated with TIPTP for the indicated times at the indicated TIPTP concentrations (upper). WCLs were used for IB with α22phox, αRubicon, or αActin (lower). (c–f) LPS (100 ng/ml)-primed BMDMs were treated with compounds for 1 h, and then activated with ATP (1 mM) for 30 min. (c) NADPH oxidase activity. (d) FACS analysis for superoxide and hydrogen peroxide (upper). Quantitative analysis of mean fluorescence intensities of ROS (lower). (e) BMDMs were incubated with increasing concentrations of compound 1 and TIPTP (com 2) (***). IP with αRubicon, followed by IB with αp22phox, αBeclin-1, αUVRAG, αRubicon. […] (f) Culture supernatants were harvested and analyzed for cytokines by ELISA. […]

ROS (O2− and H2O2) = assay: Flow cytometric measurement of ROS production in BMDMs; type: cell-based, mouse; conditions: LPS-primed BMDMs, compound 1 h, ATP 30 min (Fig. 3d)
Description: Intracellular ROS levels were measured by flow cytometry from cells cultured in serum-free medium and loaded with the redox-sensitive dye 2 µM dihydroethidium (DHE for O2^−; Calbiochem) or 10 µM 2′,7′-Dichlorofluorescin diacetate (DCFH-DA for H2O2; Calbiochem)[18],[19]. The cells were thoroughly and quickly washed with pulse spin and immediately acquired for analyses in FACSCalibur (BD Biosciences, San Jose, CA). The data were plotted using CellQuest software (BD Biosciences).
as §1

With C[C@@H](Oc1cccc(-n2cc3c(n2)CCCC3)c1)C(=O)Nc1nnc(C(F)(F)F)s1 [TIPTP, (R)-2-(3-(4,5,6,7-tetrahydro-2H-indazol-2-yl)phenoxy)-N-(5-(trifluoromethyl)-1,3,4-thiadiazol-2-yl)propanamide] the NOX activity (NADPH oxidase) was “inhibited in a dose-dependent manner” and the “ROS (O2− and H2O2) generation” value (ROS (O2− and H2O2)) was “inhibited in a dose-dependent manner”.

Reference: article PMC7067850, “Identification of highly potent and selective inhibitor, TIPTP, of the p22phox-Rubicon axis as a therapeutic agent for rheumatoid arthritis” (Scientific Reports, 2020)
